# According to PMC9960553, ““Dual Anta-Inhibitors” of the A2A Adenosine Receptor and Casein Kinase CK1delta: Synthesis, Biological Evaluation, and Molecular Modeling Studies” (Pharmaceuticals, 2023):
# Values joined by “and” are separate entries in the source; they are usually repeats but may differ in a detail not shown here. Identical values can stand only once.
# Columns and labels:
# [1] = molecular target: T1, truncated CK1δ (Homo sapiens, UniProt P48730); test: CK1δ luminescent kinase assay (Kinase-Glo); type: biochemical; conditions: for remaining activity at 10 µM: read-out: % Residual Activity at 10 μM ± sd; for remaining activity at 40 µM: compound at 40 μM, read-out: % Residual Activity at 40 μM ± sd; for IC50: truncated CK1δ, ATP 2 μM, read-out: IC50 (μM), CK1δ inhibition
# T1 construct: recombinant human, GST-tagged, aa 1-294; GST; purchased Merck Millipore, Merck KGaA, Darmstadt, Germany
# T1 sequence (P48730 1-294): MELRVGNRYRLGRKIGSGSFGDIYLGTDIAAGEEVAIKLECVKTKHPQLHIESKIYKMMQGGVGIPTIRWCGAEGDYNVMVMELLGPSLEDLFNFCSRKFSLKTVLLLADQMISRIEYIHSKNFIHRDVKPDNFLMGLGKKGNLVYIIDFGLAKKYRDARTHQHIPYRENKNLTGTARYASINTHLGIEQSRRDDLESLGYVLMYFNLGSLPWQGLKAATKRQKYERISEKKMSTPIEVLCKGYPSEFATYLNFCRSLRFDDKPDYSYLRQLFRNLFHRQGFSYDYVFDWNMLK
# Method: Luminescent assays were performed in white 96-well plates in a 40 μL final volume with buffer containing 50 mM HEPES (pH 7.5), 1 mM EDTA, 1 mM EGTA, and 15 mM MgCl2. In a typical assay, 10 μL of inhibitor solution (desired concentrations were obtained by diluting a starting 10 mM solution in DMSO) and 10 μL of enzyme solution were added to the well, followed by 20 μL of assay buffer containing casein substrate (Sigma-Aldrich, Merck KGaA, Darmstadt, Germany, casein solution from bovine milk, 5% in water) and ATP, at a final concentration of 0.05% and 2 μM, respectively. […] After 60 min of incubation at 30 °C, the enzymatic reactions were stopped with the addition of 40 μL of KinaseGlo reagent. […] Data were analyzed using Excel and GraphPad Prism software (version 8.0).
# [2] = molecular target: T2, human recombinant A1AR (Homo sapiens, UniProt P30542); test: [3H]CCPA displacement binding in CHO cell membranes; conditions: mean ± standard error, read-out: KiA1
# T2 construct: expressed in transfected cells; host or cells: CHO cells (membranes)
# T2 sequence (P30542 1-326): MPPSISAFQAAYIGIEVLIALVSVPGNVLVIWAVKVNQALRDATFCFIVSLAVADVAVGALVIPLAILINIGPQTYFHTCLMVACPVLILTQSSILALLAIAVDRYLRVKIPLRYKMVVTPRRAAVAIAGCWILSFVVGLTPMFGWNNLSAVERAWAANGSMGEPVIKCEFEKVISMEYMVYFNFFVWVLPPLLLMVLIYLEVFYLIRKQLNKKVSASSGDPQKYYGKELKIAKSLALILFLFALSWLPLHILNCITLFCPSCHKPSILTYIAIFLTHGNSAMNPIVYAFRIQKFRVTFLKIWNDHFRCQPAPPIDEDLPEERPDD
# Method: (§1) Compounds 5, 6, 8–12, 15–21, and 23–25 were evaluated in binding studies at human recombinant A1, A2A, and A3 ARs, stably transfected in Chinese hamster ovary (CHO) cells. [^3H]CCPA (2-chloro-N^6-cyclopentylAdo), [^3H]NECA (5’-N-ethylcarboxamidoAdo), and [^3H]HEMADO (2-hexynyl-N^6-methylAdo) were used as the, respective, radioligands. All compounds were also tested at the A2BARs by inhibition of NECA-stimulated adenylyl cyclase activity, using the GloSensor cAMP assay, but none of them were active at a concentration up to 30 μM [35]. The results, together with the data of the reference adenine derivative 1, are reported in Table 2 as Ki values in μM (± standard errors). In the table, the IC50 values (μM) of the CK1δ inhibitory activity are also indicated. […] We called the compounds endowed with receptor antagonist behavior combined with an enzyme inhibitory activity “dual anta-inhibitors”.
# (§2) All of the pharmacological methods followed the procedures as described earlier. In brief, the membranes for radioligand binding were prepared from CHO cells stably transfected with human adenosine receptor subtypes through two centrifugations at different speeds. The first low-speed […] centrifugation allowed for the removal of cell fragments and nuclei, while the second, performed at high speed (100,000× g), allowed for the precipitation of the crude membrane fractions. The resulting membrane pellet was resuspended in the buffer used for the respective binding experiments, frozen in liquid nitrogen, and stored in aliquots at −80 °C.
# (§3) The binding affinity of the novel compounds was evaluated using radioligand competition experiments in CHO cells stably expressing hA1AR, hA2AAR, hA3AR subtypes, as early described. Results were expressed as Ki values (dissociation constants), which were calculated with the program GraphPad (GraphPad Software, San Diego, CA, USA). Each concentration was tested three–five times in duplicate and the values given as the mean ± standard error (S.E.). The potency of compounds at the hA2BAR (expressed on CHO cells) was determined through a GloSensor cAMP Assay.
# [3] = molecular target: T3, human recombinant A2AAR (Homo sapiens, UniProt P29274); test: [3H]NECA displacement binding in CHO cell membranes; conditions: mean ± standard error, read-out: KiA2A
# T3 construct: expressed in transfected cells; host or cells: CHO cells (membranes)
# T3 sequence (P29274 whole entry): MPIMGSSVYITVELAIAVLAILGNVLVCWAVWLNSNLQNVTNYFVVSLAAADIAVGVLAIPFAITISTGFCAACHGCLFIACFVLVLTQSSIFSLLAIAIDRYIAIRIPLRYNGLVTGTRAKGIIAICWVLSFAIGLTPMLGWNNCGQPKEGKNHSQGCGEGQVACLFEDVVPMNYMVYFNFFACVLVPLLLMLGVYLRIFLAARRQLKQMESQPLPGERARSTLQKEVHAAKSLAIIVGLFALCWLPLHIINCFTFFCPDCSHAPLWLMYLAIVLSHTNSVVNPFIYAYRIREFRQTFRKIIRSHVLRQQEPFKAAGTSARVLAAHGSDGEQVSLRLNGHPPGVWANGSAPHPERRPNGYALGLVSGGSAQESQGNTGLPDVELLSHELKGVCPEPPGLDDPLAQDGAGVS
# Method: as §1, §2, §3
# [4] = molecular target: T4, human recombinant A3AR (Homo sapiens, UniProt P0DMS8); test: [3H]HEMADO displacement binding in CHO cell membranes; conditions: mean ± standard error, read-out: KiA3
# T4 construct: expressed in transfected cells; host or cells: CHO cells (membranes)
# T4 sequence (P0DMS8 1-318): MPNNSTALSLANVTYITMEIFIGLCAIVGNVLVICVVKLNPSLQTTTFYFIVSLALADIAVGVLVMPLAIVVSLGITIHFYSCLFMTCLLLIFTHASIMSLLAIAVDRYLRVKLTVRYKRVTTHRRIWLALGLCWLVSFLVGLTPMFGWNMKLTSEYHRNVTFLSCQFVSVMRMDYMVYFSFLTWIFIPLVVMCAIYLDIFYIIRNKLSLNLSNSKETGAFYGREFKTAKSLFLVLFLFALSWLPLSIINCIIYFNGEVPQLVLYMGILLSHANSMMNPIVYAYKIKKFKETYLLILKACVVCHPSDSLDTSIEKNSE
# Method: as §1, §2, §3
# [5] = CK1δ residual activity, compound at 10 μM
Structure (SMILES),"remaining activity at 10 µM [1, 5]",remaining activity at 40 µM ([1]; CK1δ residual activity),IC50 [1],Ki [2],Ki [3],melting point,Ki [4],"% Residual Activity at 10 μM ± sd ([1]; CK1δ residual activity, compound at 10 μM, 10 µM)"
"Nc1nc(Cl)nc2c1ncn2C1CCCC1 [Compound 1, 2-chloro-9-cyclopentyl-9H-purin-6-amine]",13 ± 7.4%,0.7 ± 0.4%,5.25 µM and 5.2 µM,1.89 ± 0.16 µM,0.465 ± 0.129 µM,121 to 122 °C,0.631 ± 0.062 µM,
"Nc1nc(Cl)nc2c1ncn2C1CCC1 [Compound 5, 2-chloro-9-cyclobutyl-9H-purin-6-amine]",37 ± 3.8%,43 ± 3.2%,5.25 ± 0.9 µM,1.53 ± 0.265 µM,0.558 ± 0.151 µM,117 to 119 °C,,
"Nc1nc(Cl)nc2c1ncn2C1CCCCC1 [Compound 6, 2-chloro-9-cyclohexyl-9H-purin-6-amine]",> 50%,30 ± 0.2%,> 10 µM,,,125 to 126 °C,,52 ± 3.0%
"Nc1nc(Cl)nc2c1nc(-c1ccco1)n2C1CCCC1 [Compound 8, 2-chloro-9-cyclopentyl-8-(furan-2-yl)-9H-purin-6-amine]",,86 ± 1.6%,> 40 µM,0.118 ± 0.01 µM,0.007 µM,152 to 153 °C,0.14 ± 0.035 µM,
"Nc1nc(Cl)nc2c1nc(-c1cccs1)n2C1CCCC1 [Compound 9, 2-chloro-9-cyclopentyl-8-(thiophen-2-yl)-9H-purin-6-amine]",,90 ± 4.6%,> 40 µM,0.053 ± 0.009 µM,0.036 ± 0.009 µM,158 to 159 °C,0.017 ± 0.002 µM,
"Nc1nc(NCc2ccccc2)nc2c1ncn2C1CCCC1 [Compound 10, N^2-benzyl-9-cyclopentyl-9H-purine-2,6-diamine]",48 ± 3.5%,30 ± 4.1%,5.3 ± 1 µM,3.96 ± 0.8 µM,0.157 ± 0.04 µM,,0.298 ± 0.047 µM,
"Nc1nc(NCCc2ccccc2)nc2c1ncn2C1CCCC1 [Compound 11, 9-Cyclopentyl-N^2-phenethyl-9H-purine-2,6-diamine]",,88 ± 2.9%,> 40 µM,0.58 ± 0.046 µM,0.012 ± 0.003 µM,,0.049 ± 0.008 µM,
"Clc1nc(NCc2nc3ccccc3[nH]2)c2ncn(C3CCCC3)c2n1 [Compound 15, N-((1H-benzo[d]imidazol-2-yl)methyl)-2-chloro-9-cyclopentyl-9H-purin-6-amine]",24 ± 14%,22 ± 13%,1.53 ± 0.4 µM,> 30 µM,3.26 ± 0.626 µM,,1.138 ± 0.004 µM,
"c1ccc(CNc2nc(NCc3nc4ccccc4[nH]3)c3ncn(C4CCCC4)c3n2)cc1 [Compound 16, N^6-((1H-benzo[d]imidazol-2-yl)methyl)-N^2-benzyl-9-cyclopentyl-9H-purine-2,6-diamine]",26 ± 7.6%,46 ± 31%,4.76 ± 0.3 µM,> 30 µM,0.718 ± 0.149 µM,,0.432 ± 0.025 µM,
"O=C(NCc1ccccc1)Nc1nc(Cl)nc2c1ncn2C1CCCC1 [Compound 18, 1-Benzyl-3-(2-chloro-9-cyclopentyl-9H-purin-6-yl)urea]",38 ± 6%,29 ± 3.9%,3.37 ± 2.5 µM,> 30 µM,> 30 µM,,> 30 µM,
"COC(=O)CNc1nc(Cl)nc2c1ncn2C1CCCC1 [Compound 19, Methyl (2-chloro-9-cyclopentyl-9H-purin-6-yl)glycinate]",23 ± 2.4%,44 ± 2.6%,2.55 ± 0.2 µM,20.7 ± 1.87 µM,13.5 ± 0.98 µM,,14.8 ± 3.01 µM,
O=C(CNc1nc(Cl)nc2c1ncn2C1CCCC1)NCc1ccccc1 [Compound 20],32 ± 16%,29 ± 12%,1.87 ± 0.2 µM,> 30 µM,> 30 µM,,,
"N#CCNc1nc(Cl)nc2c1ncn2C1CCCC1 [Compound 21, 2-((2-Chloro-9-cyclopentyl-9H-purin-6-yl)amino)acetonitrile]",13 ± 24%,25 ± 9.6%,0.36 ± 0.1 µM,8.66 ± 1.52 µM,3.48 ± 0.312 µM,,5.96 ± 1.02 µM,
"Clc1nc(NCCc2ccccc2)c2ncn(C3CCCC3)c2n1 [Compound 23, 2-chloro-N^6-(2-phenylethyl)-9-cyclopentyladenine]",27 ± 20%,14 ± 9.7%,0.66 ± 0.2 µM,1.34 ± 0.279 µM,1.17 ± 0.037 µM,100 to 101 °C,0.151 ± 0.015 µM,
"Clc1nc(NCCCc2ccccc2)c2ncn(C3CCCC3)c2n1 [Compound 24, 2-chloro-9-cyclopentyl-N-(3-phenylpropyl)-9H-purin-6-amine]",26 ± 6.7%,11 ± 19%,0.73 ± 0.1 µM,0.692 ± 0.088 µM,3.34 ± 0.749 µM,177 to 179 °C,1.27 ± 0.289 µM,
"Clc1ccc(CCNc2nc(Cl)nc3c2ncn3C2CCCC2)cc1 [Compound 25, 2-Chloro-N-(4-chlorophenethyl)-9-cyclopentyl-9H-purin-6-amine]",31 ± 12%,14 ± 4.3%,1.69 ± 1 µM,10.8 ± 2.04 µM,2.65 ± 0.381 µM,,,
